Measurements as given in US20260083722A1, “BIFUNCTIONAL DEGRADERS COMPRISING ELECTROPHILIC PROTACS THAT ENGAGE DCAF1 AND PHARMACEUTICAL COMPOSITIONS COMPRISING THE SAME” (THE SCRIPPS RESEARCH INSTITUTE, priority 2022, published 2026).

Key:
[1] = target: T1, recombinant DCAF1-WT (a.a.'s 1046-1396) (Homo sapiens, UniProt Q9Y4B6); experiment: gel-ABPP with recombinant purified DCAF1-WT doped into HEK293T cell proteome; type: binding; conditions: for inhibition of MY-11B probe reactivity with recombinant DCAF1: 2 h, then MY-11B 25 μM 1 h, YT41S and YT47S at single concentration 100 μM; for plateau of blockade of MY-11B labeling: at 20 µM test concentrations; for gel-shift of recombinant DCAF1 by Coomassie blue staining: in the presence of compound
T1 construct: form of DCAF1 containing the WD40 domain (amino acids (a.a.'s) 1046-1396); made in house
Source text: FIG. 2 that azetidine acrylamides stereo- and site-selectively engage recombinant DCAF1_C1113. (A) Domain map of DCAF1 with the region used for recombinant protein studies marked in a bracket (a.a.'s 1046-1396) and C1113 highlighted in red. (B) Crystal structure of a DCAF1-Vpx complex (pdb: 5AJA). DCAF1 (a.a.'s 1046-1396) is shown in cyan, Vpx is shown in yellow, and C1113, which is located at the DCAF1-Vpx interface is shown in red. (C) Structures of alkyne-modified azetidine acrylamides MY-11A (5) and MY-11B (6). (D) Gel-ABPP showing the concentration-dependent reactivity of MY-11A and MY-11B (1 h) reactivity with recombinant, purified DCAF1-WT or the DCAF1-C1113A mutant (0.06 μg/μL of DCAF1 protein per sample) doped into HEK293T cell proteome (1 μg/μL). MY-11A/B labeling of proteins was visualized by CuAAC conjugation to an azide-rhodamine tag followed by SDS-PAGE and in-gel fluorescence scanning. Results are from a single experiment representative of two independent experiments. (E) Gel-ABPP showing the concentration-dependent effects of MY-1A and MY-1B on MY-11B reactivity with DCAF1-WT. Samples were treated with MY-1A/B for 2 h, followed by MY-11B (25 μM, 1 h) and analyzed as described in (D). Left, quantification of data presented as mean values±SEM from two independent experiments. Right, representative gel-ABPP results. (D, E) Lower images are Coomassie blue-stained gels corresponding to ABPP gels shown in upper images.
(A) Structures of candidate electrophilic PROTACs YT41R (7), YT41S (8), YT47R (9), and YT47S (10). (B) Gel-ABPP showing the concentration-dependent effects of YT41R and YT47R on MY-11B reactivity with DCAF1-WT protein (0.06 μg/μL of DCAF1 protein per sample) doped into HEK293T cell proteome (1 μg/μL). Also shown are the effects of YT41S and YT47S tested at a single concentration (100 μM). Samples were treated with heterobifunctional compounds for 2 h, followed by MY-11B (25 μM, 1 h) and analyzed as described in FIG. 2D. Left, representative gel-ABPP results. Lower image is Coomassie blue-stained gel corresponding to ABPP gel shown in upper image. Right, quantification of data presented as mean values±SEM from two independent experiments.
DCAF1 is a multi-domain substrate receptor for CRL4 ligases (FIG. 2A) that has diverse physiological and disease functions, including being co-opted by the HIV-2 virus to promote degradation of the antiviral host protein SAMHD1^27-28. […] We verified the stereo- and site-selective engagement of DCAF1_C1113 by azetidine acrylamides using alkynylated analogues of MY-1A and MY-1B (MY-11A (5) and MY-11B (6), respectively; FIG. 2C). For these experiments, we doped into HEK293T cell lysates a recombinantly expressed and purified form of DCAF1 containing the WD40 domain (amino acids (a.a.'s) 1046-1396), in complex with the CRL4 adaptor protein DDB1^31, and exposed these samples to varying concentrations of MY-11A or MY-11B. After 1 h, we assessed MY-11A and MY-11B engagement of DCAF1 by copper-catalyzed azide-alkyne cycloaddition (CuAAC)^32 with an azide-rhodamine reporter tag followed by SDS-PAGE and in-gel fluorescence scanning^33. […] We used gel-ABPP to quantify an in vitro target engagement value (TE50) of approximately 25 μM (95% C.I.=13-38 μM) for MY-1B labeling of DCAF1 (FIG. 2E, left).

[2] = test system: ternary complex of FKBP12 and DCAF1; experiment: co-immunoprecipitation of DCAF1 with HA-FKBP12 in HEK293T cells (ternary complex); type: cell-based; conditions: 5 μM, 2 h
Experimental: (§1) (A) Left, western blots showing effects of YT47R and YT47S on the immunoprecipitation (IP) of FLAG-DCAF1-WT or FLAG-DCAF1-C1113A with HA-FKBP12 in HEK293T cells co-expressing these proteins. Cells were treated with YT47R or YT47S (5 μM) for 2 h in the presence of MG132 (10 μM) prior to lysis and IP with an anti-HA antibody and western blotting for the indicated proteins (DCAF1, FKBP12, and ubiquitinated protein). Right, bar graphs quantifying DCAF1 (top) and ubiquitination (Ub) (bottom) in the indicated IP groups. (B) Left, western blots showing effects of YT47R and YT47S on the IP of endogenous DCAF1 with HA-FKBP12 in HEK293T cells expressing HA-FKBP12. Cells were treated with YT47R or YT47S (5 μM) for 2 h in the presence of MG132 (10 μM) prior to lysis and IP with an anti-HA antibody and western blotting for the indicated proteins (DCAF1, FKBP12). Right, bar graph quantifying DCAF1 in the indicated IP groups. For (A, B), data are mean values±SEM for three independent experiments. Statistical significance was calculated with unpaired two-tailed Student's t-tests comparing YT41R/YT47R- and DMSO-treated cells. **P<0.01, ****P<0.0001. (C) MS-ABPP quantification of IA-DTB labeling of the indicated cysteines in DCAF1 from FLAG-DCAF1-WT-expressing HEK293T cells treated with the indicated concentrations of YT47R (3 h) relative to cells treated with DMSO. Data represent average values±SEM from four independent experiments. Statistical significance was calculated with unpaired two-tailed Student's t-tests comparing compound to DMSO treated cells. *P<0.1.
Finally, we investigated whether electrophilic PROTACs induce a stable ternary complex of FKBP12 with DCAF1 and promote FKBP12 ubiquitination. […] A ternary complex was not observed in cells expressing the DCAF1-C1113A mutant (FIG. 6A), supporting that YT47R induces this complex through site-specifically reacting with C1113. […] In considering possible reasons why this ternary complex formation with endogenous DCAF1 was insufficient to support the degradation of recombinantly expressed FKBP12 (FIG. 4A), we speculate that our current PROTACs (YT41R, YT47R) may require further improvements in cellular properties to enable robust targeted protein degradation mediated by physiological concentrations of DCAF1.

[3] = target: T2, C1113 of recombinantly expressed DCAF1 (Homo sapiens, UniProt Q9Y4B6); experiment: MS-ABPP in FLAG-DCAF1-WT-expressing HEK293T cells; type: cell-based; conditions: 5 μM, 3 h
T2 construct: expressed in transfected cells; host or cells: HEK293T
Experimental: as §1, with “Cells were treated with YT47R or YT47S (5 μM) for 2 h in the presence of MG132 (10 μM) prior to lysis and IP with an anti-HA antibody and western blotting for the indicated proteins (DCAF1, FKBP12).” left out, “For (A, B), data are mean values±SEM for three independent experiments.” left out, “Data represent average values±SEM from four independent experiments.” left out, “*P<0.1. […]” for “*P<0.1.”

T1 sequence (Q9Y4B6 1046-1396): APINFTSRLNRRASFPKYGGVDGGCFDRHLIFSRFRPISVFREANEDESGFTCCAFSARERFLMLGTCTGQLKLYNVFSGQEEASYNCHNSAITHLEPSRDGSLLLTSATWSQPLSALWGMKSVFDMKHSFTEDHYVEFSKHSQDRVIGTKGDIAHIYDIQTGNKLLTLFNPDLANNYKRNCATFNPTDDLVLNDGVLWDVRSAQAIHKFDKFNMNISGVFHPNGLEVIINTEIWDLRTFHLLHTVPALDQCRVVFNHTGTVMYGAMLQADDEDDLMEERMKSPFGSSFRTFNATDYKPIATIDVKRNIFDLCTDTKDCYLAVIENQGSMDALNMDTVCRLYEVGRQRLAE
T1 sequence (Q16531 whole entry partner, the tested form may be a part): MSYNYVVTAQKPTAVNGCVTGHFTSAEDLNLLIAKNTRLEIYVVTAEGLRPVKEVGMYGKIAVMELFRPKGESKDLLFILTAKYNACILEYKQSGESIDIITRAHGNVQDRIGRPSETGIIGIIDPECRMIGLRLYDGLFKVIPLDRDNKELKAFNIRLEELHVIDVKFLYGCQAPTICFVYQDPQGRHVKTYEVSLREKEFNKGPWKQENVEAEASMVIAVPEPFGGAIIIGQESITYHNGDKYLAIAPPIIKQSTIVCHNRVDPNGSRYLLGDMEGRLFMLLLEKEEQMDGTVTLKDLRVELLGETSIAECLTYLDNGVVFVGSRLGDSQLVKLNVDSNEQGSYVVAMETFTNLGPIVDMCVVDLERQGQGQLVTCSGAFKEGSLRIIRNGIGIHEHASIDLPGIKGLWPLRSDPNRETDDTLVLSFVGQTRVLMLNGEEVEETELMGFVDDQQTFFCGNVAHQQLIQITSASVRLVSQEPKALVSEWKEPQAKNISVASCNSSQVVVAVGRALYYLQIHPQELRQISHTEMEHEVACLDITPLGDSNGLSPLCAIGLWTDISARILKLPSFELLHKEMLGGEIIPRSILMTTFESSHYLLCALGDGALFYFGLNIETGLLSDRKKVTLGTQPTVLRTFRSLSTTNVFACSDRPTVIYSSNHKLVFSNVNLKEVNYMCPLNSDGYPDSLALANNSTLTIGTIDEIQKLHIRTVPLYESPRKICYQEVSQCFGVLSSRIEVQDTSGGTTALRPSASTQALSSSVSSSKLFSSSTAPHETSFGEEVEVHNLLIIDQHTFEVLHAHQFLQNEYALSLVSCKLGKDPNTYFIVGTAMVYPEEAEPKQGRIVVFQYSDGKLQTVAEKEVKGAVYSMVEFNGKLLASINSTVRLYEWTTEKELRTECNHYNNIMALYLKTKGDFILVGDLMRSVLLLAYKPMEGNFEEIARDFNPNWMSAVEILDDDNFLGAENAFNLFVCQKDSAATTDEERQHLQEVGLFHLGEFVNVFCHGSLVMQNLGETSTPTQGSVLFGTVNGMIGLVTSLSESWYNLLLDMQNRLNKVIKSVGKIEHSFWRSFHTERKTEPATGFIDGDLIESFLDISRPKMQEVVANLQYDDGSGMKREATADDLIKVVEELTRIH
T2 sequence (Q9Y4B6 whole entry): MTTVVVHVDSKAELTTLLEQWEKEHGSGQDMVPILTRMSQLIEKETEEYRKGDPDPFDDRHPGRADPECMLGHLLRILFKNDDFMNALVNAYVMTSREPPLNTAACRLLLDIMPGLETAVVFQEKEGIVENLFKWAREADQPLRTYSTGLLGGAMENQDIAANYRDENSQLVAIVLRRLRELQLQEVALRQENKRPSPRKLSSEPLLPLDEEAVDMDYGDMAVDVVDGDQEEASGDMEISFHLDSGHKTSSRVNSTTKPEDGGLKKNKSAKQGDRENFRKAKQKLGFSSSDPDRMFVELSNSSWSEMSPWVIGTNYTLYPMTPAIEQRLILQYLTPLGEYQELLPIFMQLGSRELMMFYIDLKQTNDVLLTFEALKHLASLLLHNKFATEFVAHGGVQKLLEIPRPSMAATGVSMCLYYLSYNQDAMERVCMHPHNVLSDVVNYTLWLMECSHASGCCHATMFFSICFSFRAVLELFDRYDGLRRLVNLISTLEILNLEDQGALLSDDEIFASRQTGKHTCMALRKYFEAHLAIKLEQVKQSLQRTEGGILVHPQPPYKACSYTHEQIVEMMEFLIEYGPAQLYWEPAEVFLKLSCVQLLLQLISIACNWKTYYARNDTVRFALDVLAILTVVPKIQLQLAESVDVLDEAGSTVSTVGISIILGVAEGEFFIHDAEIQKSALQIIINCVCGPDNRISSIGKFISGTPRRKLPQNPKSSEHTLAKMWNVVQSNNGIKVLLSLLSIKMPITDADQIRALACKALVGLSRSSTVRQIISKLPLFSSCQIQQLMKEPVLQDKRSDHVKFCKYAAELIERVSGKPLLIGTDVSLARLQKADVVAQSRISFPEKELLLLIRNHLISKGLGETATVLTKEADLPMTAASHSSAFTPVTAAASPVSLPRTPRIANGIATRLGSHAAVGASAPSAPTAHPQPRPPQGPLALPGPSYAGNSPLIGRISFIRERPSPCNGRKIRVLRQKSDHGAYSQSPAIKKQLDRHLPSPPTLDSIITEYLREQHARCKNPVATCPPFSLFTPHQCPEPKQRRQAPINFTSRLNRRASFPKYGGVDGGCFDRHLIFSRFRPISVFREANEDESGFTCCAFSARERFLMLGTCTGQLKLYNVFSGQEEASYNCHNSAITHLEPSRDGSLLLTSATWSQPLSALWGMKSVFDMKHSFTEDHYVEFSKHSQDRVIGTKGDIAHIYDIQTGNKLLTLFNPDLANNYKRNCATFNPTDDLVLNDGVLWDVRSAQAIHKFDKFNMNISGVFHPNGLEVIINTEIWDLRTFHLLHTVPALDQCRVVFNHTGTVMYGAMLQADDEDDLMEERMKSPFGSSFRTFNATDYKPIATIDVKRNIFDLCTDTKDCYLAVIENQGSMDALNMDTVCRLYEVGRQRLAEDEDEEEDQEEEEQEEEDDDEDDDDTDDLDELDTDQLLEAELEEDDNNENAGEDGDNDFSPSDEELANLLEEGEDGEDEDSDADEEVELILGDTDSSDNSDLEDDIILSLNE

| SMILES | inhibition of MY-11B probe reactivity with recombinant DCAF1 [1] | plateau of blockade of MY-11B labeling [1] [%] | gel-shift of recombinant DCAF1 by Coomassie blue staining [1] | ternary complex of FKBP12 and DCAF1 ([2]; FLAG-DCAF1-WT, in the presence of MG132 (10 μM)) | ternary complex of endogenous DCAF1 with HA-FKBP12 ([2]; HEK293T expressing HA-FKBP12 only, MG132, compared to YT47S or DMSO) | ternary complex of FKBP12 and DCAF1 ([2]; cells expressing the DCAF1-C1113A mutant, MG132) | engagement of C1113 of recombinantly expressed DCAF1 [3] [%] |
| --- | --- | --- | --- | --- | --- | --- | --- |
| C=CC(=O)N1C[C@H](c2ccc(C(=O)NCCOCCOCCOCCNC(=O)COc3cccc([C@@H](CCc4ccc(OC)c(OC)c4)OC(=O)[C@@H]4CCCCN4C(=O)C(=O)C(C)(C)CC)c3)cc2)[C@@H]1C(=O)Nc1cccc2cccnc12 [YT47R] | concentration-dependent inhibition | ~75 | apparent gel-shift | clear evidence of a ternary complex | more robust ternary complex | not observed | ~20 |
| C=CC(=O)C1C[C@H](c2ccc(C(=O)NCCOCCOCCNC(=O)COc3cccc([C@@H](CCc4ccc(OC)c(OC)c4)OC(=O)[C@@H]4CCCCN4C(=O)C(=O)C(C)(C)CC)c3)cc2)[C@@H]1C(=O)Nc1cccc2cccnc12 (stereo partly shown) [YT41R] | concentration-dependent inhibition | ~75 | apparent gel-shift | – | – | – | – |
